Test results: patent US20230003644A1, “PHOTONIC CHIP FOR MONITORING ACTIVITIES OF LIVING CELLS” (THE UNIVERSITY OF HONG KONG, priority 2021, published 2023)

How the values were obtained:
NIH 3T3 cells = test: Label-free monitoring of cell adhesion, morphology and intracellular dynamics on the LED/GaN chipscope (photocurrent and DIC imaging); assay type: cell-based
From the text: As a monolithic integration design of the chip, the same shared sapphire substrate can realize the light coupling from the LED to the PD without any external optics, as shown in FIG. 5a. In particular, when the lights emitted from LED reached external media with a low RI (i.e., nmedia<nsapphire), total internal reflection occurred at the sapphire/media interface, causing some light to be reflected into the light-detecting region. The intensity of the reflected light is then detected by the PD. Since the critical angle enlarges as the refractive index increases, less light is reflected back to the PD, resulting in a decrease in the photocurrent. When the cells are in contact with the chip surface, the sensor provides a rapid photocurrent response due to the obvious RI change from sapphire-culture medium (1.78 to 1.337) to sapphire-cells (1.78 to 1.343-1.48). Furthermore, the formation of strong cell-substrate adhesion and/or the evolution of cell morphology could also result in changes in the recorded photocurrent.
NIH 3T3 cells are used in the present study due to their rapid adhesion response and significant cell area changes during spreading. First performed a live/dead assay test to evaluate the potential phototoxicity of the chip to the cells. […] Next, after the chip was stabilized in the incubator at 37° C., the cell suspension was added into the chip chamber. […] Benefitting from the integrated mini-DIC imaging system, we can clearly capture the cell morphology changes in real-time. As shown in the top panel of FIG. 7b, the round cells gradually precipitated onto the chip surface in the first 30 min (step 1), and then started to extend in the next 4 h (step 2). After that, they continued to flatten and formed a dense monolayer sheet covering the entire chip surface (step 3). These observed cell morphology changes closely matched the optical response of the chip, indicating the successful integration of GaN chip-based sensing and DIC imaging units in our system for cellular activity monitoring. Additionally, to mimic the cell detachment process (step 4), we treated the cells with sodium dodecyl sulfate (SDS), a known surfactant that can detach and lyse adhering cells from culture dishes or flasks.
• Cells (NIH 3T3, 0.3 million/mL, 500 uL, 37° C.) were seeded on the LED chip and transferred to the incubator (37° C.). Then the ammeter started to monitor the optical current at specific time points. The control experiment was performed by monitoring the solo cell culture medium with an identical chip (DMEM, 500 uL, 37° C.). • The bright-field images of cells were collected at specific time points to monitor the initial stage of cells adhesion and extension. The cells were cultured on sapphire, the substrate of which was identical with the top layer of LED chips.
3T3 cells were grown on the chip surface for overnight and then were washed once and replaced with HEPES buffer (HBSS). After the system was restabilized, various concentrations of thrombin (MCE) were injected into the cell chamber. The signal dynamics were recorded by a meter.

intracellular Ca2+ = test: Living cell calcium tracking (Fluo-3 fluorescence); assay type: cell-based; details: low-dose thrombin (2 U/mL)
Procedure: After the cells were grown on the confocal dish for 24 h, they were washed by PBS and cultured in living cell fluorescence imaging medium (Thermo) with the calcium indicator (Fluo-3, Invitrogen, […]) and pluronic F-127 (0.02%) in incubator for 1 h. They were then washed by fresh culture medium twice and incubated for a further 30 min to allow complete de-esterification of intracellular acetoxymethyl esters. The living cell fluorescent images were then captured by fluorescence microscope (Zeiss) with the frame rate of 1 side/min.

[1] = tested on: human monocytic THP-1 cells; test: GaN chipscope monitoring of cell differentiation (cell area and roundness from images); assay type: cell-based; details: THP-1 monocyte to M0, PMA 25 ng/mL, 3-9 h after stimulation
From the text: The cell refractive index is an intrinsic optical parameter that varies with different cell phenotypes. This inspired the exploration of whether the sensing platform could track online the dynamics of cell differentiation and distinguish the different cell phenotypes. In this experiment, human monocytic THP-1 cells are employed as the cell model due to their multi-phenotypic characteristics, including the initial suspended monocyte, adhered macrophage (M0), and two major polarized states (adhered M1 and M2). Here, THP-1 cells differentiated from suspended state (monocyte) to adhered M0 state by phorbol 12-myristate 13-acetate (PMA), followed by induction of the resultant M0 cells to polarize to M1 by LPS/FN-gamma. The process is monitored throughout by the GaN chipscope system (FIG. 10a).
Consistent with the photocurrent signal, the imaging system recorded a fast cell rolling behavior in the initial 30 min before the cells settled down (FIG. 10b). PMA (25 ng/mL) is then loaded to trigger monocyte to macrophage differentiation. It is evident from the photocurrent signal that monocytes responded strongly against PMA in 3-9 h after stimulation, and this response became mild in the following 11 h (FIG. 10b).
Phorbol-12-myristate-13-acetate (PMA, MCE, 25 ng/mL) was used to induce monocytes differentiation to M0 macrophages. […]

THP-1 cells = test: Flow cytometry of macrophage surface markers CD11b and CD80; assay type: cell-based, human; details: THP-1 cells after incubation with PMA
Procedure: Phorbol-12-myristate-13-acetate (PMA, MCE, 25 ng/mL) was used to induce monocytes differentiation to M0 macrophages. For further polarization, 100 ng/mL lipopolysaccharide (LPS, Thermo) and 20 ng/mL interferon-γ (IFN-γ, Thermo) were added to the culture to induce M1 generation. The cells were stimulated to M0 and M1 macrophages for 24 h. Flow cytometry and immunofluorescence staining were used to assess the expression of macrophage-specific cell surface marker: CD11 b for monocyte/macrophage differentiation and CD 80 for M1 macrophage polarization.
The harvested cells were washed with cold PBS and then the Fc receptor binding sites were blocked by incubating with Human TruStain FcX™ (422302, Biolegned) on ice for 20 min. The cells were then incubated with either FITC labeled CD 11 b (301329, Biolegend) or FITC labeled CD 80 (305206, Biolegend) in darkness for another 30 min. After centrifugation, the cells were washed twice with FACS buffer (PBS containing 2% BSA) and immediately measured by the flow cytometer Novoexpress (Agilent).

[2] = tested on: human lung adenocarcinoma cells (A549); test: GaN chipscope drug screening: cytotoxicity of an anticancer drug on an A549 cell monolayer (photocurrent and imaging); assay type: cell-based; details: for decrease of cell confluence: after 24 h incubation
Procedure: The A549 cells are seeded in the chamber of the platform and cultured for 24 h for fully spreading. Afterward, 10 μM, 30 μM or 50 μM of β-lapachone is added into the chambers, respectively.
Additionally, the photocurrent curves offered valuable practical information for the study of drug-cell interactions. First, by plotting the slope of the tangent line, the speed of cell response at different periods was analyzed. […] Indeed, a higher dose is more toxic and induces faster cell death. Thirdly, by coupling the imaging system, we were able to qualitatively and quantitatively analyze the cell-drug interactions. As shown in FIG. 9b-d, the cells shrank in a dose-dependent manner after β-lapachone treatment. Specifically, cells treated with a lower dose (10 μM) slowly shrank over time, but there is no obvious increase in intercellular spaces during the 24 h. […] It is believed that the increase in photocurrent in higher dose-treated cells is contributed by both cell morphology changes as well as by cell intracellular dynamics alternation. Further, the cell confluency is calculated based on the photos taken by the imaging system.

[3] = tested on: human lung adenocarcinoma cells (A549); test: as above; assay type: cell-based; details: A549, 5 hours of drug treatment

For `CCCCCCCCCCCCOS(=O)(=O)[O-].[Na+]` [SDS, sodium dodecyl sulfate], the “rapid increase of photocurrent signal after addition” value (NIH 3T3 cells; 3T3 monolayer, cell detachment step) was 4.24% and the “detachment of cell monolayer from chip surface” value (NIH 3T3 cells; 3T3 monolayer, within a few seconds of loading) was “completely detached”.

For `Cc1ccc2c(c1)C(=O)C1(O)CCN(c3ccccc3)C1=N2` (centres unmarked) [blebbistatin], the “cell morphology after treatment (imaging)” value (NIH 3T3 cells; 3T3 cells, 50 μM, next 1 h, increased cell gaps and dendritic morphologies) was “gradually shrank” and the “increase of relative optical current compared to the control group” value (NIH 3T3 cells; 3T3 cells, blebbistatin 50 μM, treated for 50 min) was 1.02%.

With thrombin the “time at which photocurrent reached a plateau” value (NIH 3T3 cells; 3T3 monolayer, thrombin 150 U/mL) was 50 min, the “maximal change (increase) of photocurrent” value (NIH 3T3 cells; 3T3 monolayer, thrombin high dose 150 U/mL) was 1.66% and the “decrease of photocurrent signal” value (NIH 3T3 cells; 3T3 monolayer, thrombin low dose 2 U/mL, first 10 min, returned to initial level in next 30 min) was 0.94%. For the same compound, the “calcium fluorescence response of living cells” value (intracellular Ca2+) was “biphasic cell response”.

With `CCCCCCCCCCCCCC(=O)O[C@@H]1[C@@H](C)[C@@]2(O)[C@@H](C=C(CO)C[C@]3(O)C(=O)C(C)=C[C@@H]23)[C@@H]2C(C)(C)[C@]12OC(C)=O` [PMA, phorbol 12-myristate 13-acetate] the “increase in cell spreading area” value [1] was 137% and the “expression of CD11b” value (THP-1 cells) was “significantly increased”.

In the case of `CC1(C)CCC2=C(O1)c1ccccc1C(=O)C2=O` [β-lapachone], the “reaction time of the cells from photocurrent curve” value (shortened to “reaction time of the cells”) ([2]; A549, 10 μM) is reported as 20.2 h, the “reaction time of the cells” value ([2]; A549, 30 μM) is reported as 11.6 h and the “reaction time of the cells” value ([2]; A549, 50 μM) is reported as 12.5 h. The “cytotoxicity in A549 cells (photocurrent increase with drug concentration)” value ([2]; A549, 10, 30, 50 μM) was “dose-depend cytotoxicity”, the “speed of cell response (slope of photocurrent curve) at 50 μM relative to 10 μM” value ([2]; A549, first 5 h of stimulation) was 6.05 times and the “speed of cell response (slope of photocurrent curve) at 50 μM relative to 30 μM” value ([2]; A549, first 5 h of stimulation) was 2.85 times. The “decrease of cell confluence” value ([2]; A549, high dose (50 μM)) was 23.1%, the “decrease of cell confluence” value ([2]; A549, low dose (10 μM)) was 0% and the “decrease of cell confluence” value ([2]; A549, medium dose (30 μM)) was 19.0%. The “photocurrent response monitored by the LED sensor during drug treatment” value [3] was “gradually increased”.
